Measured values published in patent publication US5695738A, “Steroidal C-glycosides” (Glycomed Incorporated, priority 1995, dated 1997).

Tested on: murine skin inflammation; swelling caused by AA
Assay: arachidonic acid (AA), murine skin inflammation (ear) model, topical administration
Assay type: in vivo
Conditions: for percent inhibition of swelling caused by AA alone: 10 uL of 100 mg/mL in CHCl3 (lithocholic acid in CHCl3:CH3OH 1:1) applied to the ear immediately after AA, 90 minutes; for % Inhibition of Swelling: topical, 1 mg applied to the ear immediately after arachidonic acid, 6 mm ear disk weighed at 90 minutes, average of two experiments (Table 1)
Experimental: Briefly, the compounds at an appropriate concentration are dissolved in a suitable solvent, and applied to a rodent ear immediately following application of arachidonic acid (AA). A control of AA alone is run. About 90 minutes later, a 6 mm disk of each ear is removed and weighed. The percent inhibition of swelling caused by AA alone is calculated for the steroidal C-glycoside derivatives of the invention and compared to other steroids.
Using the arachidonic acid (AA), murine skin inflammation model, described by Harris, R. R. et al. (Skin Pharmacol 1990; 3:29-40) the anti-inflammatory activity of (5) was tested. For comparison, Lithocholic acid and Methyl lithocholate, were also tested. Compounds were dissolved at 100 mg/mL in CHCl3, except for lithocholic acid which was dissolved in CHCl3 :CH3 OH (1:1); 10 uL of each compound was applied to the ear immediately following arachidonic acid (AA). AA was applied alone, or followed immediately with methyl lithocholate, ketone (12) alkene (11) or compound (5). 90 minutes later, a 6 mm disk of each ear was removed and weighed.

| Compound | percent inhibition of swelling caused by AA alone | % Inhibition of Swelling |
| --- | --- | --- |
| C[C@H](CCC(=O)O)[C@H]1CC[C@H]2[C@@H]3CC[C@@H]4C[C@H](O)CC[C@]4(C)[C@H]3CC[C@]12C [Lithocholic acid] | ~22.5% | 30.5% |
| COC(=O)CC[C@@H](C)[C@H]1CC[C@H]2[C@@H]3CC[C@@H]4C[C@H](OCC(O)(CO)C[C@@H]5O[C@@H](C)[C@@H](O)[C@@H](O)[C@@H]5O)CC[C@]4(C)[C@H]3CC[C@]12C (stereo partly drawn) [compound (5), 1-[3-O-(Lithocholic acid)]-2-(alpha-L-C-methylfucopyranose)-2',3'-propanediol methyl ester] | about 48.5% | 48.5% |
| COC(=O)CC[C@@H](C)[C@H]1CC[C@H]2[C@@H]3CC[C@@H]4C[C@H](O)CC[C@]4(C)[C@H]3CC[C@]12C [methyl lithocholate] | about 17.5% | 17.5% |
